Test results reported in article PMC9332833 (Cancers, 2022).
Like-named read-outs stand apart in the source and are kept apart here.

Experiments:
K562-MDR1 cells [1] = assay: MTT viability test, K562-MDR1; assay type: cell-based, human; settings: for viability at 0.005 µM: 48 h, 0,005 µM; for IC50: MTT; for Cross-resistance of K562-MDR1 cells: MTT assay
Excerpt: The K562-MDR1 cell line was developed using increasing concentrations of the commonly used antimitotic drug vincristine on a polyclonal K562 population, as described earlier. […] The DMSO concentration in the culture was 0.1%. The vincristine dose was doubled every 2–3 weeks (at least twice for each experiment) after the cells reached confluence. Cell’s viability was above 90%, as confirmed by Muse Cell Analyzer (Merck Millipore, Burlington, MA, USA). The final concentration of vincristine reached was 0.1 μM. The increase in the K562-MDR1 population was confirmed by flow cytometry and PCR.
(§1) Cells were seeded in 96-well plates; after 24 h, medium with the appropriate drug concentration was added to each well. After 48 h, Tetrazolium Bromide (Sigma-Aldrich, St. Louis, MO, USA) was added to each well for 2–3 h. After that, cells were lysed and formazan crystals were dissolved. Absorbance was read using an iMark Microplate absorbance reader (Bio-Rad, Hercules, CA, USA). Results were calculated relative to cells treated with DMSO only. […]
(§2) Cells were seeded in 96-well plates at 7 × 10^3 cells/well in 50 µL of complete medium (for K562 or K562-MDR1) or at 50 × 10^3 cells/well in 50 µL of complete medium (CD34+ cells). After 24 hours, 50 µL of medium with the appropriate drug concentration was added to each well. The final DMSO concentration per well was 1% for K562 and K562-MDR1 and 0.1% for CD34+ cells. After 48 hours, 20 µL of Tetrazolium Bromide (Sigma-Aldrich, St. Louis, MO, USA) at a concentration of 5 mg/mL was added to each well. Cells were incubated for 2-3 hours in a cell culture incubator, and then 10% SDS with 1% HCl was added to each well to lyse the cells and dissolve the formazan crystals. Plates were […]

K562 cells [2] = assay: MTT viability test, K562; assay type: cell-based; settings: Homo sapiens; for viability at 0.005 µM: K562, 48 h, 0,005 µM; for IC50: K562
Description: CML cell line K562 CCL-243™ (BCR-ABL^+) was purchased from the ATCC® (Manassas, VA, USA). Cells were grown in RPMI 1640 medium containing HEPES (Biowest, Nuaillé, France) with 2 mM GlutaMAX (Gibco, Grand Island, NY, USA), supplemented with 10% fetal bovine serum (Sigma-Aldrich, St. Louis, MO, USA) and […] (Gibco, Grand Island, NY, USA) and 0.1 µM Vincristine (for K562-MDR1).
as §1, §2

[3] = Blood morphology in K562 xenograft mice; settings: 500 mg/kg IP daily 14 days, N=4
Description: (§3) Eight-week-old female NOD.Cg-Prkdcscid Il2rgtm1Wjl/SzJ NSG mice (Jackson Laboratory, Bar Harbor, ME, USA) were injected subcutaneously into the dorsal fold with 1 × 10^6 K562 cells of the human chronic myeloid leukemia (CML) line in a final volume of 100 µL (0.5% of the mouse weight). On day 3 after cell administration, mice were randomly assigned to each group, and on days 4–17 of the experiment, the selected tested compounds and control solutions were administered intraperitoneally or orally. During the experiment, subcutaneous tumors and body weight were measured daily. Tumor growth during the experiment was measured with an electronic display caliper. The theoretical tumor volume [mm], was calculated according to the formula (a^2 × b) * 0.5, where a is the shorter tumor axis [mm] and b is the longer tumor axis [mm]. On day 26, the experiment was terminated: blood was collected and analyzed for cellular morphology and standard biochemistry metabolites. Tumors were weighed.
(§4) Control and treated mice were grouped according to the tested compounds and the scheme of their administrations (doses, administration frequencies, routes of administration) in the CML xenogeneic model obtained by subcutaneous transplantation of 1 × 10^6 cells of the human CML blast line K562 into mice NOD.Cg-Prkdcscid Il2rgtm1Wjl/SzJ (NSG).
(§5) Hydroxyurea K562 500 mg/kg, IP Aqua pro 1 x daily 8

K562 cells [4] = assay: K562 xenogeneic mouse model, tumor growth; assay type: in vivo, NSG mice
Description: Statistical analysis was performed using GraphPad Prism version 9.1.0. All in vitro experiments were performed in at least triplicate biological replicates and statistical results are expressed as mean ± standard deviation (SD). Statistical data of animal experiments are expressed as mean ± standard error of the mean (SEM). For experiments involving patients, the normality of the distribution was checked using the Shapiro–Wilk test and the statistical analysis was performed using one-way ANOVA with Dunnett’s post-test * p < 0.05, ** […], *** 0.001 > p > 0.0001, **** p < 0.0001.
Table S3. […] Control and
IP, intraperitoneal administration; O, orally

[5] = Body and organ weights in K562 xenograft mice
Description: as §3, §4, §5

K562-MDR1 cells [6] = assay: P-glycoprotein (CD243)/propidium iodide flow cytometry; assay type: cell-based, human; settings: 1 µM, 24 h; for Proportion of K562-MDR1 cells, mean value: DMSO control 33.6%; for viability at 1 µM: Homo sapiens, DMSO control 89.2%, read-out: Living cells (viability), mean value
Description: BK124.1 or DMSO were added to cells and after 24 h incubation cells were harvested and stained with FITC Mouse Anti-Human P-glycoprotein (CD243) clone 17F9 (BD, Franklin Lakes, NJ, USA) or an appropriate isotype control. Propidium iodide was added to […]. Cells were analyzed on a BD FACSCalibur flow cytometer using CellQuest software (BD, Franklin Lakes, NJ, USA). […]
Flow cytometry analysis of CD243 (P-glycoprotein)
Cells were seeded at a concentration of 1-2 × 10^5 cells/mL in a 6- or 24-well plate. After 24 hours of pre-incubation, DMSO or test compounds in DMSO were added. The cells were then incubated for 24 hours. After this time, cells were harvested, washed with 0.5% BSA in PBS (Mg2+ and Ca2+ free), and labeled for 30 minutes on ice with FITC Mouse Anti-Human P-glycoprotein (CD243) clone 17F9 (BD, Franklin Lakes, NJ, USA) or an appropriate isotype control. Following incubation with the antibody, cells were stained with propidium iodide, washed with PBS and a nalyzed on a BD FACSCalibur flow cytometer using CellQuest software (BD, Franklin Lakes, NJ, USA). […]

[7] = Homo sapiens, 48 h, 0,05 µM, 48 h, mean ± SD, read-out: Viability in relation to control
[8] = Homo sapiens, 48 h, mean ± SD, read-out: Viability in relation to control
[9] = Homo sapiens, 48 h, 5 µM, 48 h, mean ± SD, read-out: Viability in relation to control
[10] = 48 h, mean ± SD, read-out: Viability in relation to control
[11] = mean ± SD, standard range 0.0-99.0
[12] = 500 mg/kg IP daily 14 days, mean ± SD, N=4

Compound COc1cccc2c1C(=O)c1c(O)c3c(c(O)c1C2=O)C[C@@](O)(C(=O)CO)C[C@@H]3O[C@H]1C[C@H](N)[C@H](O)[C@H](C)O1 [doxorubicin] has a viability at 5 µM (K562-MDR1 cells [1]; [7]) of 101%, a viability at 0.005 µM (K562-MDR1 cells [1]; [8]) of 99.4% and a viability at 5 µM (K562-MDR1 cells [1]; [9]) of 45.1%. The IC50 (K562-MDR1 cells [1]; Homo sapiens, 48 h) was 7 µM, the “Cross-resistance of K562-MDR1 cells” value (K562-MDR1 cells [1]) was “confirmed” and the viability at 0.005 µM (K562 cells [2]; [10]) was 97.7%. It also gave an IC50 (K562 cells [2]; MTT, 48 h) of 3.7 µM.
In the case of NC(=O)NO [hydroxyurea, reference compound], the GRA [3, 11] is reported as 26.0±7.6%, the LYMP [3, 11] is reported as 58.0±9.9% and the MON [3, 11] is reported as 16.0±3.8%. The HGB ([3]; mean ± SD, standard range 1.1-18) was 13.1 ± 0.8 g/dL, the WBC ([3]; mean ± SD, standard range 3.0-15) was 8.1±4.3 103/μL and the MPV ([3]; mean ± SD, standard range 4.6-7.3) was 3.6±4.3 μm3. For the same compound, the RBC ([3]; mean ± SD, standard range 5.0-12) was 6.9±0.4 106/μL, the RDW ([3]; mean ± SD, standard range 11.5-14.5) was 17.3±0.6% and the MCH ([3]; mean ± SD, standard range 12-24.5) was 18.9 ± 0.5 pg. For the same compound, the MCHC ([3]; mean ± SD, standard range 21.6-42) was 31.5 ± 0.3 g/dL, the HCT ([3]; mean ± SD, standard range 36-52) was 41.5±2.4% and the PLT ([3]; mean, standard range 140-600) was 1575.5 103/μL. For the same compound, the Tumor weights (K562 cells [4]; 500 mg/kg IP daily 14 days, mean ± SD, N=4, tumor growth control 9.2±2.1) was 1.8 ± 0.9 g, the “Tumor growth versus control groups” value (K562 cells [4]; BK124.1 20 or 30 mg/kg IP, imatinib 100 mg/kg orally, hydroxyurea 500 mg/kg IP, 1 x daily) was “effectively inhibited” and the Brain weight [5, 12] was 0.46 ± 0.02 g. The Heart weight [5, 12] was 0.11 ± 0.03 g, the Kidneys weight [5, 12] was 0.27 ± 0.04 g and the Liver weight [5, 12] was 1.16 ± 0.13 g. The Lung weight [5, 12] was 0.25 ± 0.08 g, the Splean weight [5, 12] was 0.05 ± 0.01 g and the “Total body weight course” value ([5]; doses as in Table S3, control mice gained mass in the last 5 days) was “began to lose large quantities of weight”.
In the case of CC(=O)O[C@H]1C(=O)[C@@]2(C)[C@H]([C@H](OC(=O)c3ccccc3)[C@]3(O)C[C@H](OC(=O)[C@H](O)[C@@H](NC(=O)c4ccccc4)c4ccccc4)C(C)=C1C3(C)C)[C@]1(OC(C)=O)CO[C@@H]1C[C@@H]2O [paclitaxel], the viability at 5 µM (K562-MDR1 cells [1]; [7]) is reported as 89.9%, the viability at 5 µM (K562-MDR1 cells [1]; Homo sapiens, 48 h, 0,5 µM, 48 h, mean ± SD, read-out: Viability in relation to control) is reported as 48.4% and the viability at 0.005 µM (K562-MDR1 cells [1]; [8]) is reported as 100%. For the same compound, the viability at 5 µM (K562-MDR1 cells [1]; [9]) was 44.3%, the IC50 (K562-MDR1 cells [1]; Homo sapiens, 48 h) was 7 µM and the “Cross-resistance of K562-MDR1 cells” value (K562-MDR1 cells [1]) was “confirmed”. For the same compound, the “Proportion of K562-MDR1 cells, mean value” (K562-MDR1 cells [6]) was 33.7%, the viability at 1 µM (K562-MDR1 cells [6]) was 77.2% and the viability at 0.005 µM (K562 cells [2]; [10]) was 32.6%.
With CC[C@]1(O)C[C@H]2CN(CCc3c([nH]c4ccccc34)[C@@](C(=O)OC)(c3cc4c(cc3OC)N(C=O)[C@H]3[C@@](O)(C(=O)OC)[C@H](OC(C)=O)[C@]5(CC)C=CCN6CC[C@]43[C@@H]65)C2)C1 [vincristine] the viability at 1 µM (K562-MDR1 cells [1]; Homo sapiens, 48 h, 0,1 µM, 48 h, mean ± SD, read-out: Viability in relation to control) was 94.3%, the viability at 0.001 µM (K562-MDR1 cells [1]; Homo sapiens, 48 h, 0,001 µM, 48 h, mean ± SD, read-out: Viability in relation to control) was 106% and the viability at 1 µM (K562-MDR1 cells [1]; Homo sapiens, 48 h, 1 µM, 48 h, mean ± SD, read-out: Viability in relation to control) was 32.4%. For the same compound, the viability at 0.005 µM (K562-MDR1 cells [1]; [8]) was 111%, the IC50 (K562-MDR1 cells [1]; Homo sapiens, 48 h) was 0.512 µM and the “Proportion of K562-MDR1 cells, mean value” (K562-MDR1 cells [6]) was 37.0%. For the same compound, the viability at 1 µM (K562-MDR1 cells [6]) was 79.7%, the viability at 0.001 µM (K562 cells [2]; K562, 48 h, 0,001 µM, 48 h, mean ± SD, read-out: Viability in relation to control) was 76.6% and the viability at 0.005 µM (K562 cells [2]; [10]) was 32.6%. The IC50 (K562 cells [2]; MTT assay) was 0.003 µM.
